Assay results taken from US12459922B2 (Gilead Sciences, Inc., priority 2022, dated 2025).

system: endogenous cellular STAT1 (phosphorylated at Tyr701) in NCI-H1373 cells; assay: Phospho-STAT1 (Tyr701) LANCE Ultra TR-FRET Detection Assay; assay type: cell-based; details: 48 hours, phospho-STAT1 (Tyr701) induction, read-out: NH1373 pSTAT1 EC50

Row | Structure (SMILES) | EC50
1 | Cc1cnc(-c2cc3ccn(C[C@@H]4CCC[C@H](Nc5cn[nH]c(=O)c5C(F)(F)F)C4)c(=O)c3cc2F)nc1 [Example 240] | 4.35 nM
2 | Cc1cnc(-c2cc3ccn(C[C@@H]4CCC[C@H](Nc5cn[nH]c(=O)c5C(F)(F)F)C4)c(=O)c3cc2F)nc1 [Example 242] | 9.44 nM

same assay, conditions: Homo sapiens, NCI-H1373, 48 h, phospho-STAT1 (Tyr701) induction, read-out: NH1373 pSTAT1 EC50

Row | Structure (SMILES) | EC50
3 | Nc1nc(-c2cc3ccn(C[C@@H]4CCC[C@H](Nc5cn[nH]c(=O)c5C(F)(F)F)C4)c(=O)c3cc2F)ncc1C(F)F [Example 231, 6-(4-amino-5-(difluoromethyl)pyrimidin-2-yl)-7-fluoro-2-(((1R,3S)-3-((6-oxo-5-(trifluoromethyl)-1,6-dihydropyridazin-4-yl)amino)cyclohexyl)methyl)isoquinolin-1(2H)-one] | 5.92 nM
4 | O=c1[nH]ncc(N[C@H]2CCC[C@@H](Cn3ccc4cc(-c5ncc(C(F)(F)F)cn5)c(F)c(F)c4c3=O)C2)c1C(F)(F)F [Example 232, 7,8-difluoro-2-(((1R,3S)-3-((6-oxo-5-(trifluoromethyl)-1,6-dihydropyridazin-4-yl)amino)cyclohexyl)methyl)-6-(5-(trifluoromethyl)pyrimidin-2-yl)isoquinolin-1(2H)-one] | 1.67 nM
5 | O=c1[nH]ncc(N[C@H]2CCC[C@@H](Cn3ccc4cc(-c5ncc(C(F)F)cn5)c(F)c(F)c4c3=O)C2)c1C(F)(F)F [Example 233] | 1.95 nM
6 | Nc1nc(-c2cc3ccn(C[C@@H]4CCC[C@H](Nc5cn[nH]c(=O)c5C(F)(F)F)C4)c(=O)c3c(F)c2F)ncc1C(F)(F)F [Example 234] | 1.55 nM
7 | O=c1[nH]ncc(N[C@H]2CCC[C@@H](Cn3cnc4cc(-c5ncc(C(F)(F)F)cn5)c(F)cc4c3=O)C2)c1C(F)(F)F [Example 235] | 4.38 nM
8 | Nc1nc(-c2cc3ncn(C[C@@H]4CCC[C@H](Nc5cn[nH]c(=O)c5C(F)(F)F)C4)c(=O)c3cc2F)ncc1C(F)F [Example 236] | 32.2 nM
9 | Nc1nc(-c2cc3ccn(C[C@@H]4CCC[C@H](Nc5cn[nH]c(=O)c5C(F)(F)F)C4)c(=O)c3c(F)c2F)ncc1C(F)F [Example 239] | 5.37 nM
10 | O=c1[nH]ncc(N[C@H]2CCC[C@@H](Cn3ccc4cc(-c5ncc(C6CC6)cn5)c(F)cc4c3=O)C2)c1C(F)(F)F [Example 241] | 6.38 nM
11 | Nc1nc(-c2cc3ccn(C[C@@H]4CCC[C@H](Nc5cn[nH]c(=O)c5C(F)(F)F)C4)c(=O)c3c(F)c2F)ncc1Cl [Example 243, 6-(4-amino-5-chloropyrimidin-2-yl)-7,8-difluoro-2-(((1R,3S)-3-((6-oxo-5-(trifluoromethyl)-1,6-dihydropyridazin-4-yl)amino)cyclohexyl)methyl)isoquinolin-1(2H)-one] | 2.98 nM
12 | O=c1[nH]ncc(N[C@H]2CCC[C@@H](Cn3cnc4cc(-c5ncc(C(F)F)cn5)c(F)cc4c3=O)C2)c1C(F)(F)F [Example 244, 7-(5-(difluoromethyl)pyrimidin-2-yl)-6-fluoro-3-(((1R,3S)-3-((6-oxo-5-(trifluoromethyl)-1,6-dihydropyridazin-4-yl)amino)cyclohexyl)methyl)quinazolin-4(3H)-one] | 5.19 nM
13 | Nc1nc(-c2cc3ccn(C[C@@H]4CCC[C@H](Nc5cn[nH]c(=O)c5C(F)(F)F)C4)c(=O)c3c(F)c2F)ncc1OC(F)F [Example 245, 6-(4-amino-5-(difluoromethoxy)pyrimidin-2-yl)-7,8-difluoro-2-(((1R,3S)-3-((6-oxo-5-(trifluoromethyl)-1,6-dihydropyridazin-4-yl)amino)cyclohexyl)methyl)isoquinolin-1(2H)-one] | 8.13 nM
14 | O=c1[nH]ncc(N[C@H]2CCC[C@@H](Cn3ccc4cc(-c5ncc(Cl)cn5)c(F)c(F)c4c3=O)C2)c1C(F)(F)F [Example 246, 6-(5-chloropyrimidin-2-yl)-7,8-difluoro-2-(((1R,3S)-3-((6-oxo-5-(trifluoromethyl)-1,6-dihydropyridazin-4-yl)amino)cyclohexyl)methyl)isoquinolin-1(2H)-one] | 3.78 nM
15 | O=c1[nH]ncc(N[C@H]2CCC[C@@H](Cn3cnc4cc(-c5ncc(Cl)cn5)c(F)cc4c3=O)C2)c1C(F)(F)F [Example 247, 7-(5-chloropyrimidin-2-yl)-6-fluoro-3-(((1R,3S)-3-((6-oxo-5-(trifluoromethyl)-1,6-dihydropyridazin-4-yl)amino)cyclohexyl)methyl)quinazolin-4(3H)-one] | 8.8 nM
16 | O=c1[nH]ncc(N[C@H]2CCC[C@@H](Cn3ccc4cc(-c5ncc(Cl)cn5)c(F)cc4c3=O)C2)c1C(F)(F)F [Example 248, 6-(5-chloropyrimidin-2-yl)-7-fluoro-2-(((1R,3S)-3-((6-oxo-5-(trifluoromethyl)-1,6-dihydropyridazin-4-yl)amino)cyclohexyl)methyl)isoquinolin-1(2H)-one] | 3.44 nM
17 | Nc1nc(-c2cc3ccn(C[C@@H]4CCC[C@H](Nc5cn[nH]c(=O)c5C(F)(F)F)C4)c(=O)c3cc2F)cnc1C(F)(F)F [Example 249, 6-(6-amino-5-(trifluoromethyl)pyrazin-2-yl)-7-fluoro-2-(((1R,3S)-3-((6-oxo-5-(trifluoromethyl)-1,6-dihydropyridazin-4-yl)amino)cyclohexyl)methyl)isoquinolin-1(2H)-one] | 32.4 nM
18 | Nc1nc(-c2cc3ccn(C[C@@H]4CCC[C@H](Nc5cn[nH]c(=O)c5C(F)(F)F)C4)c(=O)c3cc2F)ncc1Cl [Example 250, 6-(4-amino-5-chloropyrimidin-2-yl)-7-fluoro-2-(((1R,3S)-3-((6-oxo-5-(trifluoromethyl)-1,6-dihydropyridazin-4-yl)amino)cyclohexyl)methyl)isoquinolin-1(2H)-one] | 4.71 nM
19 | Nc1nc(-c2cc3ccn(C[C@@H]4CCC[C@H](Nc5cn[nH]c(=O)c5C(F)(F)F)C4)c(=O)c3cc2F)ccc1C(F)(F)F [Example 251, 6-(6-amino-5-(trifluoromethyl)pyridin-2-yl)-7-fluoro-2-(((1R,3S)-3-((6-oxo-5-(trifluoromethyl)-1,6-dihydropyridazin-4-yl)amino)cyclohexyl)methyl)isoquinolin-1(2H)-one] | 47.3 nM
20 | Nc1nc(-c2cc3ccn(C[C@@H]4CCC[C@H](Nc5cn[nH]c(=O)c5C(F)(F)F)C4)c(=O)c3c(F)c2F)ccc1C(F)(F)F [Example 252, 6-(6-amino-5-(trifluoromethyl)pyridin-2-yl)-7,8-difluoro-2-(((1R,3S)-3-((6-oxo-5-(trifluoromethyl)-1,6-dihydropyridazin-4-yl)amino)cyclohexyl)methyl)isoquinolin-1(2H)-one] | 16.2 nM
21 | O=c1[nH]ncc(N[C@H]2CCC[C@@H](Cn3ccc4cc(-c5cnc(C(F)F)cn5)c(F)c(F)c4c3=O)C2)c1C(F)(F)F [Example 253, 6-(5-(difluoromethyl)pyrazin-2-yl)-7,8-difluoro-2-(((1R,3S)-3-((6-oxo-5-(trifluoromethyl)-1,6-dihydropyridazin-4-yl)amino)cyclohexyl)methyl)isoquinolin-1(2H)-one] | 9.41 nM
22 | Nc1nc(-c2cc3ncn(C[C@@H]4CCC[C@H](Nc5cn[nH]c(=O)c5C(F)(F)F)C4)c(=O)c3cc2F)cnc1C(F)(F)F [Example 254, 7-(6-amino-5-(trifluoromethyl)pyrazin-2-yl)-6-fluoro-3-(((1R,3S)-3-((6-oxo-5-(trifluoromethyl)-1,6-dihydropyridazin-4-yl)amino)cyclohexyl)methyl)quinazolin-4(3H)-one] | 31.9 nM
23 | COc1cnc(-c2cc3ccn(C[C@@H]4CCC[C@H](Nc5cn[nH]c(=O)c5C(F)(F)F)C4)c(=O)c3cc2F)nc1N [Example 255, 6-(4-amino-5-methoxypyrimidin-2-yl)-7-fluoro-2-(((1R,3S)-3-((6-oxo-5-(trifluoromethyl)-1,6-dihydropyridazin-4-yl)amino)cyclohexyl)methyl)isoquinolin-1(2H)-one] | 9.1 nM
24 | O=c1[nH]ncc(N[C@H]2CCC[C@@H](Cn3ccc4cc(-c5cnc(C(F)(F)F)cn5)c(F)cc4c3=O)C2)c1C(F)(F)F [Example 256, 7-fluoro-2-(((1R,3S)-3-((6-oxo-5-(trifluoromethyl)-1,6-dihydropyridazin-4-yl)amino)cyclohexyl)methyl)-6-(5-(trifluoromethyl)pyrazin-2-yl)isoquinolin-1(2H)-one] | 30.2 nM
25 | Nc1nc(-c2cc3ccn(C[C@@H]4CCC[C@H](Nc5cn[nH]c(=O)c5C(F)(F)F)C4)c(=O)c3c(F)c2F)cnc1C(F)(F)F [Example 257, 6-(6-amino-5-(trifluoromethyl)pyrazin-2-yl)-7,8-difluoro-2-(((1R,3S)-3-((6-oxo-5-(trifluoromethyl)-1,6-dihydropyridazin-4-yl)amino)cyclohexyl)methyl)isoquinolin-1(2H)-one] | 25.1 nM
26 | O=c1[nH]ncc(N[C@H]2CCC[C@@H](Cn3ccc4cc(-c5cnc(C(F)F)cn5)c(F)cc4c3=O)C2)c1C(F)(F)F [Example 258, 6-(5-(difluoromethyl)pyrazin-2-yl)-7-fluoro-2-(((1R,3S)-3-((6-oxo-5-(trifluoromethyl)-1,6-dihydropyridazin-4-yl)amino)cyclohexyl)methyl)isoquinolin-1(2H)-one] | 31.7 nM
27 | O=c1[nH]ncc(N[C@H]2CCC[C@@H](Cn3ccc4cc(-c5cnc(OC(F)F)cn5)c(F)cc4c3=O)C2)c1C(F)(F)F [Example 259, 6-(5-(difluoromethoxy)pyrazin-2-yl)-7-fluoro-2-(((1R,3S)-3-((6-oxo-5-(trifluoromethyl)-1,6-dihydropyridazin-4-yl)amino)cyclohexyl)methyl)isoquinolin-1(2H)-one] | 183 nM
28 | Nc1nc(-c2cc3ccn(C[C@@H]4CCC[C@H](Nc5cn[nH]c(=O)c5C(F)(F)F)C4)c(=O)c3cc2F)ncc1OC(F)F [Example 260, 6-(4-amino-5-(difluoromethoxy)pyrimidin-2-yl)-7-fluoro-2-(((1R,3S)-3-((6-oxo-5-(trifluoromethyl)-1,6-dihydropyridazin-4-yl)amino)cyclohexyl)methyl)isoquinolin-1(2H)-one] | 12.7 nM
29 | Nc1nc(-c2cc3ncn(C[C@@H]4CCC[C@H](Nc5cn[nH]c(=O)c5C(F)(F)F)C4)c(=O)c3cc2F)ncc1Cl [Example 261, 7-(4-amino-5-chloropyrimidin-2-yl)-6-fluoro-3-(((1R,3S)-3-((6-oxo-5-(trifluoromethyl)-1,6-dihydropyridazin-4-yl)amino)cyclohexyl)methyl)quinazolin-4(3H)-one] | 6.1 nM
